Assay results published in US20180110781A1, “SYSTEM AND METHOD FOR DIAGNOSIS AND TREATMENT OF NEUROPSYCHIATRIC DISORDERS” (Research Foundation For Mental Hygiene, Inc., priority 2016, published 2018).
Entries after “also recorded” stand apart in the source; their conditions may differ. Where a name gives a salt, the structure may show the parent alone.

Experiments:
[1] = tested on: outpatients with schizophrenia or schizoaffective disorder; test: Six-week rater-blind multivitamin-controlled trial of Kuvan: Positive and Negative Symptom Scale (PANSS); format: in vivo, human
Experimental: (§1) A six-week, rater-blind, multivitamin-controlled trial of Kuvan® was performed at the Lieber Schizophrenia Research Clinic, New York State Psychiatric Institute. Clinically stable outpatients with schizophrenia or schizoaffective disorder were randomly assigned to receive Kuvan® (20mg/kg/day) or a single, daily multivitamin tablet, added to their medication regimen. Subjects were also genotyped for the GCH1 gene promotor polymorphism (r510137071). The primary clinical efficacy outcome was change in total Positive and Negative Symptom Scale (PANSS) scores, measured at baseline, then weeks 2, 4 and 6. Improvements in function was measured by the UPSA-B, at baseline, then week 6. The primary cognitive outcome was measured by the MCCB, measured at baseline and week 6. A priori defined secondary outcomes were PANSS factor scores and MCCB domain scores. Data were analyzed using a mixed effects repeated measures model (Stata v14.1, College Station, TX). Models included fixed effects of treatment, time (week) and the treatment by time interaction, with random subject and time effects. Genotype (GCH1 A allele versus GG genotype) was also included as a fixed effect in additional models. […] All hypothesis tests were two-sided, with significance determined at unadjusted p<0.05.

[2] = tested on: outpatients with schizophrenia or schizoaffective disorder; test: Six-week trial of Kuvan: MATRICS Consensus Cognitive Battery (MCCB); format: in vivo, human
Experimental: as §1

[3] = tested on: outpatients with schizophrenia or schizoaffective disorder; test: Six-week trial of Kuvan: UCSD Performance Based Skills Assessment-Brief (UPSA-B); format: in vivo, human
Experimental: as §1

[4] = tested on: outpatients with schizophrenia or schizoaffective disorder; parameters: species or system human; conditions: in vivo
Experimental: A six-week, rater-blind, multivitamin-controlled trial of Kuvan® was performed at the Lieber Schizophrenia Research Clinic, New York State Psychiatric Institute. Clinically stable outpatients with schizophrenia or schizoaffective disorder were randomly assigned to receive Kuvan® (20mg/kg/day) or a single, daily multivitamin tablet, added to their medication regimen. Subjects were also genotyped for the GCH1 gene promotor polymorphism (r510137071). The primary clinical efficacy outcome was change in total Positive and Negative Symptom Scale (PANSS) scores, measured at baseline, then weeks 2, 4 and 6. Improvements in function was measured by the UPSA-B, at baseline, then week 6. The primary cognitive outcome was measured by the MCCB, measured at baseline and week 6. A priori defined secondary outcomes were PANSS factor scores and MCCB domain scores.
No AEs were considered by the investigators to be serious. 75% (9/12) of subjects randomized to the multivitamin group and 61.5% (8/13) of those treated with Kuvan® experienced an AE, which was not statistically different (p=0.47). There was no statistically significant difference in the average number of AEs experienced by each subject (Kuvan=2.44±1.13; Multivitamin=3.0±2.07, p=0.49), or the degree to which each AEs was considered related to the study medication (Kuvan 18/24 total events; multivitamin 13/22 total events, p=0.35). Additionally, two subjects prematurely discontinued from the study based upon the predefined stopping rules, both of whom had been randomized to the multivitamin group.

[5] = did not reach two-tailed statistical significance

C[C@H](O)[C@H](O)[C@H]1CNc2nc(N)[nH]c(=O)c2N1 [Kuvan®, saproterin dihydrochloride]
change in total PANSS score, treatment effect ([1]; Kuvan 20mg/kg/day vs daily multivitamin, baseline to week 6, treatment*time p>0.05): no treatment effect
PANSS factor scores (Positive, Negative and General Psychopathology), treatment*time effect ([1]; Kuvan vs multivitamin, six weeks): no significant treatment*time effect
genotype effect (treatment*time*genotype) on total PANSS score ([1]; p<0.1 for each visit compared to baseline): A genotype effect was not observed
MCCB composite score, final mean ([2]; GCH1 A allele patients, study end (week 6), Kuvan n=5 p=0.044, multivitamin n=8 p=0.36 vs baseline): 34.4±11.89
MCCB composite score, baseline mean ([2]; GCH1 A allele patients, Kuvan n=5, multivitamin n=8): 28.4±8.62
interaction of treatment, time and genotype on the MCCB Composite Score ([2]; GCH1 A allele versus GG, p=0.002, dihydrochloride): significant effect of GCH1 genotype by treatment group; also recorded: significant interaction
A allele carriers exhibiting improvement on the MCCB composite T score ([2]; baseline to study end, Kuvan 4/5, multivitamin 2/8): 80%
MCCB Social Cognition domain, Kuvan group versus multivitamin group ([2]; baseline to week 6, p=0.085): trend toward significance
MCCB social cognition domain score, change from baseline [2, 5]: increased from baseline
MCCB working memory domain score, change from baseline [2, 5]: increased from baseline
MCCB Working Memory domain, Kuvan group versus multivitamin group ([2]; n=13 vs n=12 completers, baseline to week 6, p=0.05): performance improvement
cognitive change from baseline (MCCB composite) in GCH1 A allele patients ([2]; paired t-test p=0.044): significant cognitive improvement
MCCB composite score, treatment*time interaction ([2]; primary cognitive outcome, one-tailed trend p=0.0735): did not show a significant treatment*time interaction
UPSA-B Financial subscale, Kuvan group versus multivitamin group ([3]; baseline to week 6, p<0.001): performance improvement
treatment*time*genotype interaction on total UPSA-B score ([3]; p=0.096): trend towards significance
unadjusted UPSA-B Financial Subscale scores, change between baseline and study end ([3]; paired sample t-tests, Kuvan p=0.039, multivitamin p=0.025): significant increase
UPSA-B score, treatment*time interaction ([3]; primary functional outcome): did not show a significant treatment*time interaction
AEs considered related to the study medication ([4]; human, 6 weeks): 18/24
average number of AEs experienced by each subject ([4]; human, 6 weeks): 2.44±1.13
subjects who experienced an adverse event ([4]; human, 6 weeks): 61.5%
severity of adverse events [4]: generally mild
